Measurements from PubChem BioAssay AID292 (DTP/NCI, 2004).
Where “and” joins values, the source holds several entries; their conditions need not be identical. Identical values can stand only once. Inconclusive results and toxic doses are left out.

Test system: B6C3F1 mice, ip Sarcoma M5076, median survival T/C
Assay: NCI In Vivo Anticancer Drug Screen. Data for tumor model Sarcoma M5076 (intraperitoneal) in B6C3F1 mice
Conditions: endpoint: median survival time, higher = longer survival
How it was run: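 Mice carrying the transplanted tumour received compound treatment. Survival was recorded, and each value is the treated-group measurement divided by that of the vehicle-dosed control group.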

`COc1oc(C2C/C(=C/C(C)=C/C(C)=C/C(C)=C/c3ccc([N+](=O)[O-])cc3)CO2)c(C)c(=O)c1C` (configuration not stated) was tested, and the T/C (dose: 1.0 mg/kg/injection, schedule: Q04DX004 (ip), vehicle: saline) was 100 % of control, the T/C (dose: 2.0 mg/kg/injection, schedule: Q04DX004 (ip), vehicle: saline) was 102 % of control and 104 % of control and the T/C (dose: 4.0 mg/kg/injection, schedule: Q04DX004 (ip), vehicle: saline) was 102 % of control and 103 % of control. The T/C (dose: 8.0 mg/kg/injection, schedule: Q04DX004 (ip), vehicle: saline) was 106 % of control and 115 % of control.

With `COc1cc(C(=O)c2cc3c(cc2C)OCO3)cc(OC)c1OC` the T/C (dose: 3.75 mg/kg/injection, schedule: Q04DX004 (ip), vehicle: Klucel (hydroxypropylcellulose) (HPC)) was 97 % of control, the T/C (dose: 7.5 mg/kg/injection, schedule: Q04DX004 (ip), vehicle: Klucel (hydroxypropylcellulose) (HPC)) was 109 % of control and the T/C (dose: 15.0 mg/kg/injection, schedule: Q04DX004 (ip), vehicle: Klucel (hydroxypropylcellulose) (HPC)) was 104 % of control. The T/C (dose: 30.0 mg/kg/injection, schedule: Q04DX004 (ip), vehicle: Klucel (hydroxypropylcellulose) (HPC)) was 105 % of control, the T/C (dose: 37.5 mg/kg/injection, schedule: Q04DX004 (ip), vehicle: Klucel (hydroxypropylcellulose) (HPC)) was 110 % of control and the T/C (dose: 60.0 mg/kg/injection, schedule: Q04DX004 (ip), vehicle: Klucel (hydroxypropylcellulose) (HPC)) was 100 % of control. The T/C (dose: 75.0 mg/kg/injection, schedule: Q04DX004 (ip), vehicle: Klucel (hydroxypropylcellulose) (HPC)) was 108 % of control and 114 % of control, the T/C (dose: 150.0 mg/kg/injection, schedule: Q04DX004 (ip), vehicle: Klucel (hydroxypropylcellulose) (HPC)) was 113 % of control and 116 % of control and the T/C (dose: 300.0 mg/kg/injection, schedule: Q04DX004 (ip), vehicle: Klucel (hydroxypropylcellulose) (HPC)) was 107 % of control.

For `CC1[C@@H]2CC=C3[C@H]4CCC5Cc6nc7c(nc6C[C@@]5(C)C4CC(=O)[C@]32CO[C@]12OC(C)(C)CC2O)CC1CC[C@@H]2C3=C[C@H]4O[C@@]5(O[C@@](C)(CO)C[C@@H]5O)C(C)[C@@]4(O)[C@]3(C)[C@@H](O)CC2[C@]1(C)C7` (some centres not stated), the T/C (dose: 12.5 micrograms/kg/injection, schedule: Q04DX004 (ip), vehicle: saline + alcohol) was 98 % of control, the T/C (dose: 25.0 micrograms/kg/injection, schedule: Q04DX004 (ip), vehicle: saline + alcohol) was 94 % of control and the T/C (dose: 50.0 micrograms/kg/injection, schedule: Q04DX004 (ip), vehicle: saline + alcohol) was 102 % of control. For the same compound, the T/C (dose: 100.0 micrograms/kg/injection, schedule: Q04DX004 (ip), vehicle: saline + alcohol) was 103 % of control and 107 % of control and the T/C (dose: 200.0 micrograms/kg/injection, schedule: Q04DX004 (ip), vehicle: saline + alcohol) was 114 % of control.

For `O=C1c2c(O)ccc(O)c2C(=O)c2c(NCCNCCO)ccc(NCCNCCO)c21`, the T/C (dose: 0.25 mg/kg/injection, schedule: Q04DX005 (ip), vehicle: saline) was 319 % of control, the T/C (dose: 0.5 mg/kg/injection, schedule: Q04DX004 (ip), vehicle: water) was 161 % of control and the T/C (dose: 0.5 mg/kg/injection, schedule: Q04DX005 (ip), vehicle: saline) was 319 % of control. For the same compound, the T/C (dose: 1.0 mg/kg/injection, schedule: Q04DX004 (ip), vehicle: water) was 174 % of control, the T/C (dose: 1.0 mg/kg/injection, schedule: Q04DX005 (ip), vehicle: saline) was 319 % of control and the T/C (dose: 2.0 mg/kg/injection, schedule: Q04DX004 (ip), vehicle: water) was 224 % of control. For the same compound, the T/C (dose: 2.0 mg/kg/injection, schedule: Q04DX005 (ip), vehicle: saline) was 298 % of control.

For `Cc1nn(-c2ccccn2)c2ncnc(N)c12`, the T/C (dose: 37.5 mg/kg/injection, schedule: Q04DX004 (ip), vehicle: saline with Tween-80) was 106 % of control, the T/C (dose: 75.0 mg/kg/injection, schedule: Q04DX004 (ip), vehicle: saline with Tween-80) was 102 % of control and the T/C (dose: 150.0 mg/kg/injection, schedule: Q04DX004 (ip), vehicle: saline with Tween-80) was 86 % of control.

In the case of `O=C(NCc1ccccc1)C1C(=O)C(=O)N(Cc2ccccc2)C1=O` (configuration not stated), the T/C (dose: 50.0 mg/kg/injection, schedule: Q04DX004 (ip), vehicle: Klucel (hydroxypropylcellulose) (HPC)) was 92 % of control, the T/C (dose: 100.0 mg/kg/injection, schedule: Q04DX004 (ip), vehicle: Klucel (hydroxypropylcellulose) (HPC)) was 102 % of control and the T/C (dose: 200.0 mg/kg/injection, schedule: Q04DX004 (ip), vehicle: Klucel (hydroxypropylcellulose) (HPC)) was 100 % of control. The T/C (dose: 400.0 mg/kg/injection, schedule: Q04DX004 (ip), vehicle: Klucel (hydroxypropylcellulose) (HPC)) was 100 % of control and the T/C (dose: 800.0 mg/kg/injection, schedule: Q04DX004 (ip), vehicle: Klucel (hydroxypropylcellulose) (HPC)) was 96 % of control.

In the case of `Nc1nc(=S)c2[nH]cnc2[nH]1`, the T/C (dose: 3.0 mg/kg/injection, schedule: Q01DX004 (ip), vehicle: Klucel (hydroxypropylcellulose) (HPC)) was 163 % of control, the T/C (dose: 6.0 mg/kg/injection, schedule: Q01DX004 (ip), vehicle: Klucel (hydroxypropylcellulose) (HPC)) was 178 % of control and the T/C (dose: 12.0 mg/kg/injection, schedule: Q01DX004 (ip), vehicle: Klucel (hydroxypropylcellulose) (HPC)) was 182 % of control. For the same compound, the T/C (dose: 24.0 mg/kg/injection, schedule: Q04DX004 (ip), vehicle: Klucel (hydroxypropylcellulose) (HPC)) was 175 % of control.
